According to PubChem BioAssay AID1963966 (Molecular Pharmacology Branch, DTP, NCI, 2024):

Test system: 935938-334-R-J1-PDC spheroids with HUVEC/MSC, viability
Assay: Anticancer human tumor 935938-334-R-J1-PDC patient-derived small intestine adenocarcinoma cell line growth inhibition [PI3K]
Conditions: for IC50: curve of first compound; for viability, T/C: stronger effect = lower value
Source text: Combinatorial screen of targeted agents with the PI3K inhibitors inavolisib, alpelisib, duvelisib, and copanlisib in multi-cell type tumor spheroids
A high-throughput screen of multi-cell type tumor spheroids was designed to identify active combinations of targeted small molecules and PI3K pathway inhibitors. Complex spheroids include a stromal component modeled by human endothelial cells (HUVEC) and fibroblasts modeled by human mesenchymal stem cells (MSCs). The concentration ranges selected for each drug and investigational agent were based upon clinically achievable concentrations if the clinical Cmax of the agent was known.
Compounds. The drugs and investigational agents: inavolisib (NSC800729), alpelisib (NSC765974), duvelisib (NSC772469), copanlisib (NSC816437), ipatasertib (NSC767898), afuresertib (NSC778305), talazoparib (NSC767125), sapanisertib (NSC764658), selumetinib (NSC741078), tovorafenib (DAY101, NSC766906), vemurafenib (NSC761431), ravoxertinib (NSC781343), sotorasib (NSC818433), MRTX1133 (NSC 836407), abemaciclib (NSC 768073), palbociclib (NSC758247), venetoclax (NSC 766270), SY5609 (NSC837396), enzalutamide (NSC755605), and darolutamide (NSC825331), were obtained from the National Cancer Institute (NCI) Developmental Therapeutics Program Chemical Repository. The FDA-approved anticancer drug set is available from the NCI Developmental Therapeutics Program. […] The stock solutions were prepared in dimethyl sulfoxide (DMSO, Sigma-Aldrich, St. Louis, MO, cat. D2650) at 800-fold the tested concentration and stored at -70 degrees C prior to their use. All drugs and investigational agents were tested over a range starting from a high concentration at or near the clinical Cmax and decreasing in half-log increments. If the clinical Cmax for an agent had not been determined, the highest concentration tested was 10 microM.
Cell Culture. All cells were maintained in an incubator at 37 degrees C and 5% CO2 with 95% humidity. The PDC lines were cultured according to standard operating procedures established by the NCI PDMR (https://pdmr.cancer.gov/sops/default.htm). All PDCs were thawed and cultured in Matrigel-coated flasks prepared with a working solution of 1X Ham's F-12 nutrient mix, without supplementation (Invitrogen, Waltham, MA, cat. 11765054), 100 U/mL penicillin-streptomycin (Invitrogen, cat. 15140122), and 2.5% Matrigel (Corning Inc., Corning, NY, cat. 354248) for the first three passages. The 354836-022-R-J1-PDC, 475296-252-R-J1-PDC, and 997726-040-R-J2-PDC lines were cultured in 6A media, which includes advanced DMEM/F-12 (Thermo Fisher Scientific, cat. 12634028), 10 mM HEPES (Thermo Fisher Scientific, cat. 15630080), 1X GlutaMAX supplement (Thermo Fisher Scientific, cat. 35050061), 0.1 mg/mL primocin (InvivoGen, San Diego, CA, cat. ant-pm-2), 10% defined fetal bovine serum, heat inactivated (HyClone Laboratories Inc., Logan, UT, cat. SH30070.03HI), 50% L-WRN conditioned media (ATCC, cat. CRL-3276), 1.25 mM N-Acetyl-L-cysteine (Sigma-Aldrich, cat. A9165), 10 mM nicotinamide (Sigma-Aldrich, cat. N0636), 1X B-27 supplement (Thermo Fisher Scientific, cat. 17504044), 1X N-2 supplement (Thermo Fisher Scientific, cat. 17502048), and 10 microM Y-27632 dihydrochloride (Tocris Bioscience, Bristol, United Kingdom, cat. 1254). The 624824-186-R-J2-PDC line was cultured in 6C/Colon 1B media, which includes all 6A media components plus 50 ng/mL human EGF recombinant protein (Thermo Fisher Scientific, cat. PHG0311). […]
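Also: compound exposure lasted seven days before viability was read.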
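For viability, T/C in this document: percent of vehicle DMSO treated spheroid viability so 100% = untreated.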

Which results are given for `CNC(=O)c1ccc(N2C(=S)N(c3ccc(C#N)c(C(F)(F)F)c3)C(=O)C2(C)C)cc1F` + CC(Nc1ccc2c(c1)OCCn1cc(N3C(=O)OCC3C(F)F)nc1-2)C(N)=O?
IC50 (second compound 0.00316 µM): > 10000 nM; IC50 (second compound 0.01 µM): > 10000 nM; IC50 (second compound 0.0316 µM): > 10000 nM; IC50 (second compound 0.1 µM): > 10000 nM; IC50 (second compound 0.316 µM): > 10000 nM; IC50 (second compound 1 µM): 3160 nM; viability, T/C (second compound 0.00316 µM, first compound 0.0316 µM): 99.4%; viability, T/C (second compound 0.00316 µM, first compound 0.1 µM): 108%; viability, T/C (second compound 0.00316 µM, first compound 0.316 µM): 99.5%; viability, T/C (second compound 0.00316 µM, first compound 1 µM): 102%; viability, T/C (second compound 0.00316 µM, first compound 3.16 µM): 97.1%; viability, T/C (second compound 0.00316 µM, first compound 10 µM): 86%; viability, T/C (second compound 0.01 µM, first compound 0.0316 µM): 99.9%; viability, T/C (second compound 0.01 µM, first compound 0.1 µM): 89.9%; viability, T/C (second compound 0.01 µM, first compound 0.316 µM): 108%; viability, T/C (second compound 0.01 µM, first compound 1 µM): 78.3%; viability, T/C (second compound 0.01 µM, first compound 3.16 µM): 102%; viability, T/C (second compound 0.01 µM, first compound 10 µM): 97.6%; viability, T/C (second compound 0.0316 µM, first compound 0.0316 µM): 102%; viability, T/C (second compound 0.0316 µM, first compound 0.1 µM): 95.6%; viability, T/C (second compound 0.0316 µM, first compound 0.316 µM): 90.7%; viability, T/C (second compound 0.0316 µM, first compound 1 µM): 110%; viability, T/C (second compound 0.0316 µM, first compound 3.16 µM): 97.8%; viability, T/C (second compound 0.0316 µM, first compound 10 µM): 86.3%; viability, T/C (second compound 0.1 µM, first compound 0.0316 µM): 80.4%; viability, T/C (second compound 0.1 µM, first compound 0.1 µM): 99.4%; viability, T/C (second compound 0.1 µM, first compound 0.316 µM): 90.3%; viability, T/C (second compound 0.1 µM, first compound 1 µM): 93.8%; viability, T/C (second compound 0.1 µM, first compound 3.16 µM): 79.2%; viability, T/C (second compound 0.1 µM, first compound 10 µM): 105%; viability, T/C (second compound 0.316 µM, first compound 0.0316 µM): 86.9%; viability, T/C (second compound 0.316 µM, first compound 0.1 µM): 72.7%; viability, T/C (second compound 0.316 µM, first compound 0.316 µM): 73.7%; viability, T/C (second compound 0.316 µM, first compound 1 µM): 83.1%; viability, T/C (second compound 0.316 µM, first compound 3.16 µM): 82.4%; viability, T/C (second compound 0.316 µM, first compound 10 µM): 64.7%; viability, T/C (second compound 1 µM, first compound 0.0316 µM): 61.6%; viability, T/C (second compound 1 µM, first compound 0.1 µM): 66.5%; viability, T/C (second compound 1 µM, first compound 0.316 µM): 72.7%; viability, T/C (second compound 1 µM, first compound 1 µM): 43.7%; viability, T/C (second compound 1 µM, first compound 3.16 µM): 61.5%; viability, T/C (second compound 1 µM, first compound 10 µM): 53.3%

Which results are given for `Cn1cnc2c(F)c(Nc3ccc(Br)cc3Cl)c(C(=O)NOCCO)cc21` + CC(Nc1ccc2c(c1)OCCn1cc(N3C(=O)OCC3C(F)F)nc1-2)C(N)=O?
IC50 (second compound 0.00316 µM): 49.6 nM; IC50 (second compound 0.01 µM): 29.9 nM; IC50 (second compound 0.0316 µM): 65.4 nM; IC50 (second compound 0.1 µM): 27.4 nM; IC50 (second compound 0.316 µM): 18.3 nM; IC50 (second compound 1 µM): < 9.49 nM; viability, T/C (second compound 0.00316 µM, first compound 0.00949 µM): 86.3%; viability, T/C (second compound 0.00316 µM, first compound 0.03 µM): 57.2%; viability, T/C (second compound 0.00316 µM, first compound 0.0949 µM): 39.2%; viability, T/C (second compound 0.00316 µM, first compound 0.3 µM): 30.1%; viability, T/C (second compound 0.00316 µM, first compound 0.949 µM): 20.9%; viability, T/C (second compound 0.00316 µM, first compound 3 µM): 16.8%; viability, T/C (second compound 0.01 µM, first compound 0.00949 µM): 71.2%; viability, T/C (second compound 0.01 µM, first compound 0.03 µM): 50.9%; viability, T/C (second compound 0.01 µM, first compound 0.0949 µM): 33.8%; viability, T/C (second compound 0.01 µM, first compound 0.3 µM): 26.5%; viability, T/C (second compound 0.01 µM, first compound 0.949 µM): 26.5%; viability, T/C (second compound 0.01 µM, first compound 3 µM): 17.9%; viability, T/C (second compound 0.0316 µM, first compound 0.00949 µM): 79.1%; viability, T/C (second compound 0.0316 µM, first compound 0.03 µM): 65.3%; viability, T/C (second compound 0.0316 µM, first compound 0.0949 µM): 38.8%; viability, T/C (second compound 0.0316 µM, first compound 0.3 µM): 34.3%; viability, T/C (second compound 0.0316 µM, first compound 0.949 µM): 23.8%; viability, T/C (second compound 0.0316 µM, first compound 3 µM): 15.8%; viability, T/C (second compound 0.1 µM, first compound 0.00949 µM): 58%; viability, T/C (second compound 0.1 µM, first compound 0.03 µM): 46.4%; viability, T/C (second compound 0.1 µM, first compound 0.0949 µM): 39.7%; viability, T/C (second compound 0.1 µM, first compound 0.3 µM): 23.1%; viability, T/C (second compound 0.1 µM, first compound 0.949 µM): 16.8%; viability, T/C (second compound 0.1 µM, first compound 3 µM): 18.3%; viability, T/C (second compound 0.316 µM, first compound 0.00949 µM): 56.4%; viability, T/C (second compound 0.316 µM, first compound 0.03 µM): 45.3%; viability, T/C (second compound 0.316 µM, first compound 0.0949 µM): 22.7%; viability, T/C (second compound 0.316 µM, first compound 0.3 µM): 19%; viability, T/C (second compound 0.316 µM, first compound 0.949 µM): 16.8%; viability, T/C (second compound 0.316 µM, first compound 3 µM): 12.7%; viability, T/C (second compound 1 µM, first compound 0.00949 µM): 44.3%; viability, T/C (second compound 1 µM, first compound 0.03 µM): 31.3%; viability, T/C (second compound 1 µM, first compound 0.0949 µM): 20.7%; viability, T/C (second compound 1 µM, first compound 0.3 µM): 17.4%; viability, T/C (second compound 1 µM, first compound 0.949 µM): 17.4%; viability, T/C (second compound 1 µM, first compound 3 µM): 12%
